{
  "source": "patent US20160282364A1",
  "about": "“ASSAY FOR INSULIN-DEGRADING ENZYME (IDE) INHIBITORS” (PRESIDENT AND FELLOWS OF HARVARD COLLEGE, priority 2013, published 2016)",
  "key": {"[1]": {"assay": "Plasma protein binding assay", "type": "in vitro ADME"}, "[2]": {"assay": "Plasma pharmacokinetics by isotope dilution mass spectrometry", "type": "in vivo, mouse", "conditions": "80 mg/kg", "description": "Purified macrocycle inhibitors were dissolved in DMSO-d6 ( 200 to 250 mg/mL stock solutions). […] The inhibitor concentration was calculated using the integral of the CH2Cl2 singlet (δ 5.76 ppm, 2H)^57, which appears in an uncluttered region of these spectra^51,58. For injectable formulations (10 mL/kg i.p. injection volume), the macrocycle inhibitor solution in DMSO-d6 (200-250 mg/mL, based on free-base molecular weight) was combined with 1:20 w/w Captisol® powder (CyDex)^59. The resulting slurry was supplemented with DMSO-d6 to make up to 5% of the final formulation volume, mixed thoroughly and dissolved with sterile saline solution (0.9% NaCl). Vehicle controls were identically formulated with 5% DMSO-d6 and equal amount of Captisol®. The formulated solutions of inhibitor were clear with no visible particles, and were stored overnight at 4° C. prior to injection. Stable isotope dilution LC-MS, pharmacokinetics, and tissue distribution measurements. […] Tissue samples ( 100 mg) fromb 6K-treated mice and vehicle controls were weighed and disrupted in Dounce homogenizers with PBS buffer (0.5 mL/100 mg sample), supplemented with 5 μM heavy-6bK and protease inhibitor cocktail (1 tablet/50 mL PBS, Roche diagnostics). The lysate was incubated on ice for 30 min, sonicated 5 min and centrifuged at 13,000 g for 5 min. The bulk of supernatant proteins were precipitated by denaturation at 95° C. for 5 min, removed by centrifugation."}, "C57BL/6J mice": {"test_system": "C57BL/6J mice", "assay": "Insulin tolerance test, glucagon challenge and amylin challenge", "type": "in vivo, mouse", "description": "Wild-type lean C57BL/6J and diet-induced obese (DIO) C57BL/6J age-matched male mice were purchased from Jackson Laboratories, and used at ages 14-16, and 24-26 weeks respectively (>20 weeks of high-fat diet for the DIO mice). GCGR^/ mice were bred from heterozygous mice and used between 11 and 17 weeks. […] Blood glucose was measured from tail nicks using AccuCheck (Aviva) meters.\nInsulin Tolerance Test (ITT), Glucagon Challenge (GC) and Amylin Challenge (AC). For hormone challenges animals were fasted individually housed as described above. For ITT the fasting period was 6 h (7 am to 1 pm), and for glucagon and amylin challenges the fasting period was 14 h (8 pm-10 am). Inhibitor or vehicle alone was injected i.p. as previously described, 30 min prior to each hormone challenge. […] Glucagon (Eli Lilly) was injected s.c. 100 μg/kg formulated in 0.5% BSA sterile saline (5 mL/kg). Amylin (Bachem) was injected s.c. 250 μg/kg formulated in sterile saline (5 mL/kg). Blood glucose was measured at timepoints −45, 0, 15, 30, 45, 60 and 75 min with reference to the time of hormone injection, by microsampling from a tail nick as described above. Values are reported as mean±S.E.M. Statistics were performed using a two-tail Student's t-test, and significance levels shown in the figures are *p<0.05 versus vehicle control group or **p<0.01 versus vehicle control group.\n(§1) Blood collection and plasma hormone measurements. Blood was collected in EDTA-coated tubes (BD Microtainer®) from trunk bleeding (˜500 μL) after CO2-euthanasia for all hormone assays. The plasma was immediately separated from red blood cells by centrifugation 10 min at 1800 g, aliquoted, frozen over dry ice and stored at −80° C. […] Values are reported as mean±S.E.M. Statistics were performed using a two-tail Student's t-test, and significance levels shown in the figures are *p<0.05 versus vehicle control group or **p<0.01 versus vehicle control group."}, "Wild-type mice": {"test_system": "Wild-type mice", "assay": "Pyruvate tolerance test (PTT)", "type": "in vivo, mouse", "conditions": "vs controls", "description": "as §1\nRT-PCR analysis of liver gluconeogenesis markers phosphoenolpyruvate carboxykinase (PEPCK) and glucose-6-phosphatase (G6Pase). Total RNA was isolated from liver samples (˜100 mg) using TRIzol® reagent (Invitrogen, 1 mL/100 mg sample), followed by spin-column purification (RNeasy® kit, Qiagen) and on-column DNAse treatment (Qiagen) according to the manufacturer's instructions. RNA concentrations were determined by UV spectrophotometry (NanoDrop). One microgram of total RNA was used for reverse transcription with oligo(dT) primers (SuperScript® III First-Strand Synthesis SuperMix, Life Technologies) according to the manufacturer's instructions. Quantitative PCR reactions included 1 μL of cDNA diluted 1:100, 0.4 μM primers, 2× SYBR Green PCR Master Mix (Invitrogen) in 25 μL total volume, and were read out by a CFX96TM Real-Time PCR Detection System (BioRad). Transcript levels were determined using two known primer pairs^18,19 for each gene of interest (Table 6), which were normalized against tubulin and beta-actin transcripts (ΔΔCT method), and expressed relative to the lowest sample. Duplicate control assays without reverse transcriptase treatment were run for each RNA preparation and primer set used. Statistics were performed using a two-tail Student's t-test, and significance levels shown in the figures are *p<0.05 versus vehicle control group or **p<0.01 versus vehicle control group."}, "C57BL/6J lean mice": {"test_system": "C57BL/6J lean mice", "assay": "CGRP-induced blood glucose excursions", "type": "in vivo, mouse", "conditions": "80 mg/kg 30 min before CGRP", "description": "Supraphysiological doses of CGRP induce blood glucose fluctuations via amylin receptors. […] Blood glucose was monitored at various points throughout the experiment, beginning at 45 minutes before and ending at 110 minutes after CGRP administration. The data was plotted (left panel) and the area under the curve for the 6bK-administered mice and the control mice was integrated."}},
  "note": "“Also recorded” adds a separate entry of the source.",
  "data": [
    {"smiles": "NCCCC[C@@H]1NC(=O)/C=C/C(=O)N[C@H](C(N)=O)CCCCNC(=O)[C@@H](Cc2ccc(C(=O)c3ccccc3)cc2)NC(=O)[C@H](CC2CCCCC2)NC1=O", "note": "[Compound 6bK]", "values": [
      {"measurement": "unbound in plasma protein binding assay", "setting": "[1]", "result": "~6", "unit": "%"},
      {"measurement": "plasma concentration relative to IC50 for mouse IDE", "setting": "[2]; 30 min post-injection", "result": "~1000", "unit": "fold"},
      {"measurement": "time at which plasma levels were detectable post-injection", "setting": "[2]; mouse, in vivo, ip", "result": 5, "unit": "min"},
      {"measurement": "time plasma levels maintained at a detectable level", "setting": "[2]; mouse, in vivo, ip", "result": "at least 4 h"},
      {"measurement": "adverse observations after high-dose insulin", "setting": "C57BL/6J mice; 80 mg/kg i.p. plus insulin 1.0 U/kg, sacrificed at 75 min", "result": "lethargy and hypothermia"},
      {"measurement": "plasma level of the hormone injected at the end of the procedure", "setting": "C57BL/6J mice; insulin, amylin or glucagon challenge, lean mice, vs control", "result": "remained elevated"},
      {"measurement": "blood glucose response to amylin challenge", "setting": "C57BL/6J mice; lean mice, 80 mg/kg, amylin s.c. 250 μg/kg, vs vehicle", "result": "hyperglycemia"},
      {"measurement": "blood glucose response to glucagon challenge", "setting": "C57BL/6J mice; lean mice, 80 mg/kg, glucagon s.c. 100 μg/kg, vs vehicle", "result": "hyperglycemia"},
      {"measurement": "blood glucose response in insulin tolerance test", "setting": "C57BL/6J mice; mice, 6bK 80 mg/kg i.p. 30 min before s.c. insulin, vs vehicle", "result": "lower hypoglycemia"},
      {"measurement": "insulin levels in insulin tolerance test", "setting": "C57BL/6J mice; mice, 6bK 80 mg/kg, vs vehicle controls, p<0.01", "result": "higher"},
      {"measurement": "hypoglycemic response to a high dose of insulin", "setting": "C57BL/6J mice; non-fasted male C57BL/6J mice, 80 mg/kg i.p., i.p. insulin 1.0 U/kg", "result": "Increased hypoglycemic response"},
      {"measurement": "plasma glucagon", "setting": "Wild-type mice; 60 min post-PTT, pyruvate 2.0 g/kg i.p.", "result": "significantly elevated"},
      {"measurement": "expression of liver gluconeogenic markers", "setting": "Wild-type mice; 60 min post-PTT", "result": "increased; also recorded: elevated"},
      {"measurement": "plasma insulin levels", "setting": "Wild-type mice; 60 min post-PTT", "result": "similar"},
      {"measurement": "blood glucose during the PTT", "setting": "Wild-type mice; pyruvate 2.0 g/kg i.p.", "result": "significantly lower"},
      {"measurement": "CGRP-induced blood glucose excursions", "setting": "C57BL/6J lean mice", "result": "augments"}
    ]}
  ]
}
